Read-outs that look alike come from different tables or passages of the source.
How the values were obtained:
recombinant human MAO-A = target: T1, recombinant human MAO-A (Homo sapiens, UniProt P21397); test: MAO-Glo assay, MAO-A; format: biochemical; conditions: for inhibition at 20 µM: read-out: % Inhibition at 20 μM ± SD, MAO-A
T1 construct: purchased Sigma-Aldrich M7316-1VL
T1 sequence (P21397 1-527): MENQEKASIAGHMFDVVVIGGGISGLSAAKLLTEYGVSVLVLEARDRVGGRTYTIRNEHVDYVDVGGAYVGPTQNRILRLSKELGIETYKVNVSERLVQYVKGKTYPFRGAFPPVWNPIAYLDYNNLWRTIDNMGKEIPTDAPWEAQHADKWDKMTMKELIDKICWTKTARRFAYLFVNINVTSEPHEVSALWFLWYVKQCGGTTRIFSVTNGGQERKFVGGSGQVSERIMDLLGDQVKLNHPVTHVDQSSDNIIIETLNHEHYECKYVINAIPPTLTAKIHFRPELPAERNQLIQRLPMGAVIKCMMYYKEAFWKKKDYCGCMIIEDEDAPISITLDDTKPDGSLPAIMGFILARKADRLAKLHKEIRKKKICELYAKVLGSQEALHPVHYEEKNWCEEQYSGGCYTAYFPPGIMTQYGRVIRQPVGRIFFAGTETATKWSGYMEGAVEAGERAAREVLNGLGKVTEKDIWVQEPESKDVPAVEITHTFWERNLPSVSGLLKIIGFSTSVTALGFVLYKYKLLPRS
Description: (§1) To determine selectivity, the compounds were tested for activity against the related FAD-dependent amine oxidase enzymes LSD1, MAO-A, and MAO-B. LSD1 activity was assessed using a commercially available assay kit (#700120, Cayman Chemical, Ann Arbor, MI, USA), in which the enzyme activity was determined by the horseradish peroxidase-catalyzed oxidation of 10-acetyl-3,7-dihydroxyphenoxazine to the highly fluorescent resorufin in response to H2O2 production. Monoamine oxidase activity was determined using recombinant human MAO-A and MAO-B (M7316-1VL & M7441-1VL, Sigma-Aldrich, St. Louis, MO, USA) and a commercially available assay kit (#V1401, MAO-Glo, Promega, Madison, WI, USA), which utilizes the MAO-catalyzed oxidation of a luciferin derivative coupled with esterase activity to produce luminescence. Fluorescent and luminescent readout was obtained using a SpectraMax M5 plate reader (Molecular Devices) equipped with SOFTmax PRO 7.0.3 software. […] Values were reported as mean % inhibition ± SD of triplicate assay wells normalized to background activity and compared to the vehicle control.

LSD1 = target: T2, LSD1 (Homo sapiens, UniProt O60341); test: LSD1 selectivity assay (Cayman kit, resorufin fluorescence); format: biochemical; conditions: read-out: % Inhibition at 20 μM ± SD, LSD1
T2 construct: purchased Cayman Chemical #700120

recombinant human MAO-B = target: T3, recombinant human MAO-B (Homo sapiens, UniProt P27338); test: MAO-Glo assay, MAO-B; format: biochemical; conditions: for inhibition at 20 µM: read-out: % Inhibition at 20 μM ± SD, MAO-B
T3 construct: purchased Sigma-Aldrich M7441-1VL
T3 sequence (P27338 1-520): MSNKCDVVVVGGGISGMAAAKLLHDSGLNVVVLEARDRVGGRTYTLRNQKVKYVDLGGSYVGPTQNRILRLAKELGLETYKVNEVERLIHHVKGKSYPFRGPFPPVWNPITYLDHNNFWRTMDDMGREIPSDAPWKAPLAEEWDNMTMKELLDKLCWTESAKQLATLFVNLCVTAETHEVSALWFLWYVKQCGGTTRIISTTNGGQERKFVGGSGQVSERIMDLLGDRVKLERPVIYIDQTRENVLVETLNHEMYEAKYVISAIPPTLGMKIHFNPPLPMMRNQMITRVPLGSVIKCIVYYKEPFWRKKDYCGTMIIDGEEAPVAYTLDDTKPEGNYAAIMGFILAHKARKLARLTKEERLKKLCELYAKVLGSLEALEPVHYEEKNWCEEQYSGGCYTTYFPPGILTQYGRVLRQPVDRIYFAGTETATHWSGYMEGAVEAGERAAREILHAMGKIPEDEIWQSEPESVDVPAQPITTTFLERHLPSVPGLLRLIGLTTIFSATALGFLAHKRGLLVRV
Description: as §1

SMOX [1] = target: T4, SMOX (Homo sapiens, UniProt Q9NWM0); test: SMOX enzyme activity, HRP-luminol chemiluminescence assay; format: biochemical; conditions: 2 mM spermine; for inhibition at 20 µM: 20 µM compound, no pre-incubation, triplicate, read-out: % Inhibition at 20 μM ± SD, SMOX; for IC50: AUC over 60 s, pH 8
T4 construct: using 0.3 µg/mL of purified SMOX enzyme and 2 mM of spermine substrate
T4 sequence (Q9NWM0 whole entry): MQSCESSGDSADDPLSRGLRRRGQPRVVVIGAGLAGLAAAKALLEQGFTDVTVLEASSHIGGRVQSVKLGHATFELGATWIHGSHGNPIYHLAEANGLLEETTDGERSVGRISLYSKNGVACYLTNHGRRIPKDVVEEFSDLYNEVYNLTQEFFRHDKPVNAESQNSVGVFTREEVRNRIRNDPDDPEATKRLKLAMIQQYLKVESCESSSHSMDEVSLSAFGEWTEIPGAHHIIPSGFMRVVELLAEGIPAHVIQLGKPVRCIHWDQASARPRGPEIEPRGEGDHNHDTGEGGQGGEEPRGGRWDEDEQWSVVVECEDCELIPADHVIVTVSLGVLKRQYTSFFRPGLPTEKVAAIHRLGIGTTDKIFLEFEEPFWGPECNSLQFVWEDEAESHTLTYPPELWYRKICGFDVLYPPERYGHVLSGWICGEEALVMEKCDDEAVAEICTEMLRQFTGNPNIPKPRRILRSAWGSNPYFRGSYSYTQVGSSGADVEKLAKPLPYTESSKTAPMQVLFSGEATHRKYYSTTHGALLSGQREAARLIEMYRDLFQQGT
Description: As the catabolism of spermine by SMOX results in the stoichiometric production of H2O2, enzyme activity was quantified by chemiluminescence generated by the horseradish peroxidase-catalyzed oxidation of luminol in 96-well plates (Costar #3912; white, flat bottom), as previously described. All assays were performed in 0.083 M glycine buffer at a pH of 8 using 0.3 µg/mL of purified SMOX enzyme and 2 mM of spermine substrate. Phosphate buffer was not used to prevent the formation of polyamine–phosphate complexes. Enzyme reactions were initiated by the addition of SMOX and HRP to all other assay components; inhibitors were not pre-incubated with enzyme. Triplicate determinations were obtained for each measurement by recording the luminescence (AUC) over 60 s. Hit compounds were then confirmed by monitoring the assay over 600 s. Each triplicate assay point contained a 4th control well to monitor and normalize the data with regards to luminescent decay over time. The compounds were initially screened for activity at a concentration of 20 µM. […] The known SMOX inhibitor, MDL-72527, was used as a control. The hit compounds were then characterized by IC50 and kinetic analyses. Percent inhibition values are reported as triplicate mean % SMOX inhibition ± SD compared to the vehicle control. IC50 values were calculated in GraphPad Prism 9.3 software (Graph-Pad, San Diego, California) using a non-linear regression analysis ([Inhibitor] vs. normalized response—variable slope). Data for all enzyme assays were generated using a SpectraMax M5 plate reader (Molecular Devices) equipped with SOFTmax PRO 7.0.3 software.

[2] = tested on: SH-SY5Y neuroblastoma cells; test: Cytotoxicity analysis, MTS assay; format: cell-based; conditions: doses below 1 mM
Description: (§2) SH-SY5Y neuroblastoma cells purchased from ATCC (Manassas, VA, USA) were cultured in Dulbecco’s modified Eagle medium (DMEM) without phenol red and supplemented with 10% heat inactivated human AB serum, 4 mM L-glutamine, and 1% penicillin/streptomycin. As the oxidation of spermine by various polyamine oxidases has been documented in cell culture containing ruminant serum, such as in fetal bovine serum (FBS) and horse serum, human AB serum was used to prevent assay interference. The cells were maintained in 5% CO2 humidified atmosphere at 37 °C. Cell media was replaced every 2 days and the cells were discarded after a maximum of 15 passages.
(§3) The SH-SY5Y neuroblastoma cells were plated in 96-well plates at a density of 30,000 cells/well and allowed to reach 80% confluence, followed by treatment with varying concentrations of inhibitor ranging from 0 to 10 mM for 12 h. Cell viability was assessed by standard MTS assay, in which MTS reagent was added to each well at a concentration of 0.33 mg/mL and incubated at 37 °C for 3 h. Viability was monitored and confirmed by a visual inspection of the cells. Absorbance was read at 490 nm and the absorbance values were normalized to background wells containing varying concentrations of inhibitor, cell media, and MTS reagent. Colorimetric readout was obtained using a SpectraMax M5 plate reader (Molecular Devices) equipped with SOFTmax PRO 7.0.3 software.

[3] = Cytotoxicity analysis, MTS assay; format: cell-based; conditions: human, SH-SY5Y neuroblastoma cells, MTS
Description: as §2, §3

SMOX [4] = target: T4, SMOX; test: Mechanism of inhibition and enzyme kinetics (Lineweaver–Burk, global fit); format: biochemical
Description: The mechanism of enzyme inhibition was determined using the HRP-luminol coupled enzyme assay described above. Reaction velocity (max RLU/sec over 10 min) was measured across multiple substrate and inhibitor concentrations, and individual triplicate values were plotted using a Lineweaver–Burk transformation (double-reciprocal) in GraphPad Prism 9.3 software (Graph-Pad, San Diego, CA, USA).

SMOX [5] = target: T4, SMOX; conditions: cited from earlier work

Row | SMILES | inhibition at 20 µM (LSD1) | inhibition at 20 µM (recombinant human MAO-B) | inhibition at 20 µM (recombinant human MAO-A) | inhibition at 20 µM (SMOX [1]) | IC50 (SMOX [1]) | Mechanism of inhibition of SMOX (SMOX [5]) | further results
1 | N[C@@H]1C[C@H]1c1ccccc1 (racemic) [TCP, Tranylcypromine, reference compound] | – | – | – | – | – | – | % Inhibition at 20 μM ± SD, MAO-A (recombinant human MAO-A): 92.6 ± 0.2%
2 | N=C(N)NCCCNCC(O)c1cc(O)cc(O)c1 (stereo not drawn) [Compound 2] | -18.7 ± 9.8% | 3.5 ± 1.3% | -5.5 ± 4.2% | 93.6 ± 1% | 8.3 µM | – | –
3 | N=C(N)NCCCCNCC(O)c1cc(O)cc(O)c1 (stereo not drawn) [Compound 3] | 41.6 ± 24.4% | -16.9 ± 12.3% | -13.7 ± 4.6% | 96.7 ± 0.2% | 6.02 µM | – | –
4 | N=C(N)NCCNCC(O)c1ccc(O)c(O)c1 (stereo not drawn) [Compound 4] | 31.9 ± 12.6% | 12.6 ± 1.6% | 15.5 ± 0.5% | 95.7 ± 0.3% | 0.23 µM | – | Toxicity after 12-h exposure [2]: did not produce significant toxicity; CC50 at 12 h ([3]; 12 h post treatment, read-out: LC50 (dose corresponding to 50% viability)): 3600 µM
5 | N=C(N)NCCCNCC(O)c1ccc(O)c(O)c1 (stereo not drawn) [Compound 5] | 46.2 ± 25.7% | 4.5 ± 9.5% | 7.3 ± 0.7% | 96.3 ± 0.1% | 0.47 µM | – | –
6 | N=C(N)NCCCNCC(O)c1cc(O)ccc1O (stereo not drawn) [Compound 7] | > 73% | 29% | 45% | 99.9 ± 0.1% | 0.23 µM | – | % Inhibition at 20 μM ± SD, MAO-B (recombinant human MAO-B): 29.1 ± 2.1%; Mechanism of inhibition (SMOX [4]; Lineweaver–Burk analysis): competitive; Ki (SMOX [4]; global fit for competitive inhibition, inhibitor 0, 0.1, 1 µM): 0.46 µM; % Inhibition at 20 μM ± SD, MAO-A (recombinant human MAO-A): 45.1 ± 7.7%; CC50 at 12 h ([3]; 12 h, read-out: LC50): 130 µM
7 | C=C=CCNCCCCNCC=C=C [MDL-72527, N^1,N^4-bis(2,3-butadienyl)-1,4-butanediamine] | – | – | – | 10.2 ± 0.9% | – | irreversible inhibitor | IC50 (SMOX [5]): 89 to 100 µM; Ki (SMOX [5]): 63 µM
8 | CC(C)=CCNC(=N)NCCCCN [N-prenylagmatine] | – | – | – | – | – | competitive inhibitors | –
9 | [H]/N=C(\N/C(=N/[H])NCCCCCCNC(=N)NC(=N)Nc1ccc(Cl)cc1)Nc1ccc(Cl)cc1 [chlorhexidine] | – | – | – | – | – | competitive inhibitors | Ki (SMOX [5]): 0.55 to 3.8 µM
10 | N=C(N)NCCCCCCCCNCCCCCCCCNC(=N)N [guazatine] | – | – | – | – | – | competitive inhibitors | –
11 | COc1ccccc1CNCCCCCCNCCCCCCCCNCCCCCCNCc1ccccc1OC [methoctramine] | – | – | – | – | – | – | Ki (SMOX [5]): 1.2 µM
